One assay addresses T1, Full-length human PRMT6 (Homo sapiens, UniProt Q96LA8).
T1 construct: Flag-PRMT6-His was eluted with 200 ug/ml FLAG peptide in the same buffer; made in house; host or cells: HEK 293F cells (BacMam virus, pFastBacMam)
The experiment in a line: PRMT6 biochemical assay (3H-SAM Flashplate, peptide substrate). The method, boiled down: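 Flag-PRMT6-His from baculovirus-infected cells, preincubated with compound 30 min at room temperature, then SAM/3H-SAM and biotinylated H4 36-50 peptide added; 20 mM Bicine pH 7.6, TCEP, BSG, Tween 20. Quenched with cold SAM, captured on streptavidin Flashplates; % inhibition from SAH/DMSO controls, 3- or 4-parameter IC50 fit.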

The target in a further assay is T2, Full-length human PRMT8 (Homo sapiens, UniProt Q9NR22).
T2 construct: Full-length human PRMT8 (NM_019854.4) isoform 1 transcript clone; made in house
The experiment in a line: PRMT8 biochemical assay (3H-SAM Flashplate, peptide substrate). The text has this: General Materials. S-adenosylmethionine (SAM), S-adenosylhomocysteine (SAH), bicine, Tween20, dimethylsulfoxide (DMSO), bovine skin gelatin (BSG), isopropyl-β-D-thiogalactopyranoside (IPTG), and Tris(2-carboxyethyl)phosphine hydrochloride solution (TCEP) were purchased from Sigma-Aldrich at the highest level of purity possible. ^3H-SAM was purchase from American Radiolabeled Chemicals with a specific activity of 80 Ci/mmol. 384-well streptavidin Flashplates were purchased from PerkinElmer.
Substrates. Peptide representative of human histone H4 residues 31-45 was synthesized with an N-terminal linker-affinity tag motif and a C-terminal amide cap by 21st Century Biochemicals.
Protein Expression. E. coli (BL21(DE3) Gold, Stratagene) made competent by the CaCl2 method were transformed with the PRMT8 construct and ampicillin selection. Protein over-expression was accomplished by growing the PRMT8 expressing E. coli clone and inducing expression with 0.3 mM IPTG at 16° C. The culture was grown for 12 hours, harvested by centrifugation, and stored at −80° C. for purification.
Protein Purification. […] GST-tagged PRMT8 was eluted with 50 mM Tris, 2 mM glutathione, pH 7.8. Pooled fractions were cleaved by thrombin (10 U) and dialysed in buffer A. GST was removed by reloading the cleaved protein sample onto glutathione sepharose column and PRMT8 was collected in the flow-through fractions. PRMT8 was purified further by ceramic hydroxyapatite chromatography. The column was washed with 50 mM phosphate buffer, 100 mM NaCl, 5% glycerol, 5 mM β-mercaptoethanol, pH 7.8 and PRMT8 was eluted by 100 mM phosphate in the same buffer. Protein was concentrated and buffer was exchanged to 50 mM Tris, 300 mM NaCl, 10% glycerol, 5 mM β-mercaptoethanol, pH 7.8 by ultrafiltration.
General Procedure for PRMT8 Enzyme Assays on Peptide Substrates. The assays were all performed in a buffer consisting of 20 mM Bicine (pH=7.6), 1 mM TCEP, 0.005% BSG, and 0.002% Tween 20, prepared on the day of use. […] DMSO (1 ul) was added to Columns 11, 12, 23, 24, rows A-H for the maximum signal control and 1 ul of SAH, a known product and inhibitor of PRMT8, was added to columns 11, 12, 23, 24, rows I-P for the minimum signal control. A cocktail (40 ul) containing the PRMT8 enzyme was added by Multidrop Combi (Thermo-Fisher). The compounds were allowed to incubate with PRMT8 for 30 min at room temperature, then a cocktail (10 ul) containing ^3H-SAM and peptide was added to initiate the reaction (final volume=51 ul). […] The assays were stopped by the addition of non-radiolabeled SAM (10 ul) to a final concentration of 400 uM, which dilutes the ^3H-SAM to a level where its incorporation into the peptide substrate is no longer detectable. 50 ul of the reaction in the 384-well polypropylene plate was then transferred to a 384-well Flashplate and the biotinylated peptides were allowed to bind to the streptavidin surface for at least 1 hour before being washed once with 0.1% Tween20 in a Biotek ELx405 plate washer. The plates were then read in a PerkinElmer TopCount plate reader to measure the quantity of ^3H-labeled peptide bound to the Flashplate surface, measured as disintegrations per minute (dpm) or alternatively, referred to as counts per minute (cpm).
Where dpm=disintegrations per minute, cmpd=signal in assay well, and min and max are the respective minimum and maximum signal controls.
Where top and bottom are the normally allowed to float, but may be fixed at 100 or 0 respectively in a 3-parameter fit. The Hill Coefficient normally allowed to float but may also be fixed at 1 in a 3-parameter fit. Y is the % inhibition and X is the compound concentration.

As usually defined, the IC50 is the concentration that gives 50% inhibition. The low end stands for greater potency in that assay, the high end for weaker potency in that assay.

T1 sequence (Q96LA8 with tags, fused parts or gaps): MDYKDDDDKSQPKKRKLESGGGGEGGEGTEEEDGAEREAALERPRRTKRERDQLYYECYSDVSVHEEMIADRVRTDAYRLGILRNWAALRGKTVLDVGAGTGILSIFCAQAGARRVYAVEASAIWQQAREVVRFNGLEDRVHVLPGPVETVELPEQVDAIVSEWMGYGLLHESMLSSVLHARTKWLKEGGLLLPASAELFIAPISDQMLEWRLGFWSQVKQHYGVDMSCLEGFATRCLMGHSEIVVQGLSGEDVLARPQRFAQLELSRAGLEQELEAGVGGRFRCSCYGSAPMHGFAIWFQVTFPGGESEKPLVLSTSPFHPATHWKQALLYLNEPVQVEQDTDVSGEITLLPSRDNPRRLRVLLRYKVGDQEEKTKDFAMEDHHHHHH
T2 sequence (Q9NR22 whole entry, canonical isoform): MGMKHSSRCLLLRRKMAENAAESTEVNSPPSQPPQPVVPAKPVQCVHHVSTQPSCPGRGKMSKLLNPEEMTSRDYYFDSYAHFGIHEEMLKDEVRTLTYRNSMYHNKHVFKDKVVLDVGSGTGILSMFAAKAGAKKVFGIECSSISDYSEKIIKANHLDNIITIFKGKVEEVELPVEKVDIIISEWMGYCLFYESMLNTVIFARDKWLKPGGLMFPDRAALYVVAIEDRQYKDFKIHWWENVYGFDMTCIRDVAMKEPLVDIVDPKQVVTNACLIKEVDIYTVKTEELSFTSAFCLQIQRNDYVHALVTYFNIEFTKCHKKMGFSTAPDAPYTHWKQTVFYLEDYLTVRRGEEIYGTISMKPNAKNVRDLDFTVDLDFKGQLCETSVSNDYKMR

Take `CN(CCN)Cc1cnn(CC(O)CO)c1-c1ccc(F)cc1` (centres unmarked) [Compound 113]: the IC50 at Full-length human PRMT6 lay within 0.101 to 1 µM; at Full-length human PRMT8, 3.01 to 10 µM.

`CCN(CC)C(=O)c1ccc(-c2n[nH]cc2CN(C)CCN)cc1` [Compound 143]: the results for the IC50 at Full-length human PRMT6 and on Full-length human PRMT8 were 0.101 to 1 µM and 1.01 to 3 µM, respectively.

For `CN(CCN)Cc1c[nH]nc1-c1ccc(C2CCOCC2)cc1` [Compound 98], the concentration for half-maximal inhibition (IC50) against Full-length human PRMT6 was less than 0.1 µM; on Full-length human PRMT8 it was 0.101 to 1 µM.

For `CN(CCN)Cc1c[nH]nc1-c1ccc(C(F)(F)F)c(F)c1` [Compound 141], the half-inhibitory concentration (IC50) against Full-length human PRMT6 was less than 0.1 µM; on Full-length human PRMT8 it was 0.101 to 1 µM.

Turning to `CN(CCN)Cc1c[nH]nc1-c1cc(F)cc(Cl)c1` [Compound 121], the IC50 against Full-length human PRMT6 was less than 0.1 µM; against Full-length human PRMT8, 0.101 to 1 µM.

On to `CN(CCN)Cc1c[nH]nc1-c1ccc2c(c1)NC(=O)CO2` [Compound 173], for which the figures for the IC50 at Full-length human PRMT6 and at Full-length human PRMT8 were less than 0.1 µM and 3.01 to 10 µM, respectively.

`COc1ccccc1-c1n[nH]cc1CN(C)CCN` [Compound 109]: the values for the IC50 at Full-length human PRMT6 and at Full-length human PRMT8 were 0.101 to 1 µM and 1.01 to 3 µM, respectively.

With `Cc1c(F)cccc1-c1n[nH]cc1CN(C)CCN` [Compound 129], the IC50 at Full-length human PRMT6 was less than 0.1 µM; at Full-length human PRMT8, 0.101 to 1 µM.

Consider `Cc1ccc(-c2n[nH]cc2CN(C)CCN)c(F)c1` [Compound 108], for which the IC50 was less than 0.1 µM on Full-length human PRMT6 and 1.01 to 3 µM on Full-length human PRMT8.

Take `CC(C)c1ccc(-c2c[nH]nc2CN(C)CCN)cc1` [Compound 101]: the IC50 on Full-length human PRMT6 and at Full-length human PRMT8 was 0.101 to 1 µM each time.

Regarding `CN(CCN)Cc1c[nH]nc1-c1ccc(Cl)cc1F` [Compound 132], the IC50 against Full-length human PRMT6 was less than 0.1 µM; against Full-length human PRMT8, 0.101 to 1 µM.

With `CCNC(=O)c1ccc(-c2n[nH]cc2CN(C)CCN)cc1` [Compound 136], the IC50 against Full-length human PRMT6 was less than 0.1 µM; at Full-length human PRMT8, 0.101 to 1 µM.

For `CN(CCN)Cc1c[nH]nc1-c1cc(C#N)ccc1Cl` [Compound 147], the IC50 is less than 0.1 µM at Full-length human PRMT6 and greater than 10 µM on Full-length human PRMT8.

Regarding `COCCOc1ccc(-c2n[nH]cc2CN(C)CCN)cc1` [Compound 167], the IC50 is less than 0.1 µM against Full-length human PRMT6 and 0.101 to 1 µM against Full-length human PRMT8.

On to `CN(CCN)Cc1n[nH]cc1-c1ccc(C#N)cc1` [Compound 100], for which the IC50 against Full-length human PRMT6 is less than 0.1 µM; against Full-length human PRMT8, 0.101 to 1 µM.

Consider `CN(CCN)Cc1n[nH]cc1-c1ccc(OC2CC2)cc1` [Compound 119], for which the IC50 against Full-length human PRMT6 is less than 0.1 µM; against Full-length human PRMT8, 0.101 to 1 µM.

As for `COc1cc(-c2n[nH]cc2CN(C)CCN)ccc1F` [Compound 142], the IC50 against Full-length human PRMT6 is less than 0.1 µM; against Full-length human PRMT8, 0.101 to 1 µM.

On to `CN(CCN)Cc1c[nH]nc1-c1ccc(OCCN2CCOCC2)cc1` [Compound 172], for which the IC50 on Full-length human PRMT6 is less than 0.1 µM; on Full-length human PRMT8 it was 3.01 to 10 µM.

Regarding `COc1cccc(-c2n[nH]cc2CN(C)CCN)c1` [Compound 130], the IC50 against Full-length human PRMT6 was less than 0.1 µM; against Full-length human PRMT8, 0.101 to 1 µM.

With `CN(CCN)Cc1c[nH]nc1-c1cccc(N(C)C)c1` [Compound 149], the IC50 against Full-length human PRMT6 is less than 0.1 µM; on Full-length human PRMT8, 0.101 to 1 µM.

As for `COc1ccc(-c2n[nH]cc2CN(C)CCN)cc1Cl` [Compound 125], the IC50 against Full-length human PRMT6 is less than 0.1 µM; at Full-length human PRMT8, 0.101 to 1 µM.

For the compound `NCCN(CCO)Cc1c[nH]nc1-c1ccc(F)cc1` [Compound 171], the IC50 against Full-length human PRMT6 and against Full-length human PRMT8 was 1.01 to 3 µM in each case.

As for `Cc1ccc(-c2n[nH]cc2CN(C)CCN)cc1Cl` [Compound 126], the half-maximal inhibitory concentration (IC50) on Full-length human PRMT6 is less than 0.1 µM; against Full-length human PRMT8, 0.101 to 1 µM.

Take `CN(CCN)Cc1c[nH]nc1-c1cc(Cl)cc(Cl)c1` [Compound 137]: the IC50 against Full-length human PRMT6 is less than 0.1 µM; against Full-length human PRMT8, 0.101 to 1 µM.

With `CN(CCN)Cc1n[nH]cc1-c1ccc(C(F)(F)F)cc1` [Compound 103], the IC50 is less than 0.1 µM on Full-length human PRMT6 and 0.101 to 1 µM on Full-length human PRMT8.

On to `CN(CCN)Cc1c[nH]nc1-c1ccc(C2CC2)cc1` [Compound 116], for which the IC50 was less than 0.1 µM against Full-length human PRMT6 and 0.101 to 1 µM against Full-length human PRMT8.

With `Cc1ccc(C#N)cc1-c1n[nH]cc1CN(C)CCN` [Compound 158], the values for the IC50 against Full-length human PRMT6 and against Full-length human PRMT8 were 0.101 to 1 µM and greater than 10 µM, respectively.

Consider `CC(O)c1ccc(-c2n[nH]cc2CN(C)CCN)cc1` (centres unmarked) [Compound 115], for which the values for the IC50 against Full-length human PRMT6 and against Full-length human PRMT8 were less than 0.1 µM and 1.01 to 3 µM, respectively.

Turning to `CN(CCN)Cc1cn(CC2CCOCC2)nc1-c1ccc(F)cc1` [Compound 128], the IC50 against Full-length human PRMT6 was 1.01 to 3 µM; on Full-length human PRMT8, greater than 10 µM.

As for `COc1cc(Cl)cc(-c2n[nH]cc2CN(C)CCN)c1` [Compound 127], the IC50 is less than 0.1 µM against Full-length human PRMT6 and 0.101 to 1 µM on Full-length human PRMT8.

Take `CN(CCN)Cc1c[nH]nc1-c1cc(Cl)ccc1F` [Compound 156]: the IC50 at Full-length human PRMT6 is less than 0.1 µM; on Full-length human PRMT8, 1.01 to 3 µM.
